PMC5207512, “Inhibition of Helicobacter pylori and Its Associated Urease by Palmatine: Investigation on the Potential Mechanism” (PLoS ONE, 2017)
In brackets after ≈: the same amount, converted by molar mass. Several values for one entry are separate records, joined by “and”; a condition that tells them apart may be missing. Equal values may be shown once.

Legend:
[1] = target: T1, H. pylori urease (HPU) (Helicobacter pylori, UniProt P69996); experiment: biochemical; format: biochemical; conditions: Fig 4C HPU; BA or NaF 5 mM preincubated 20 min, Pal 0.5 mM 20 min
T1 construct: HPU was prepared as previously described; made in house
T1 sequence (P14916 whole entry): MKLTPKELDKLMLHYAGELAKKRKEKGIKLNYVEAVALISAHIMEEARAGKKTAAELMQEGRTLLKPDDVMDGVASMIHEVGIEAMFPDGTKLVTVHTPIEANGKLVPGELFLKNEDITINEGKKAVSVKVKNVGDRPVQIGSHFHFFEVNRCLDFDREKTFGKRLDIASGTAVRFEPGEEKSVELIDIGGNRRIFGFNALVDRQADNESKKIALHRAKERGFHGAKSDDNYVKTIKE
T1 sequence (P69996 whole entry): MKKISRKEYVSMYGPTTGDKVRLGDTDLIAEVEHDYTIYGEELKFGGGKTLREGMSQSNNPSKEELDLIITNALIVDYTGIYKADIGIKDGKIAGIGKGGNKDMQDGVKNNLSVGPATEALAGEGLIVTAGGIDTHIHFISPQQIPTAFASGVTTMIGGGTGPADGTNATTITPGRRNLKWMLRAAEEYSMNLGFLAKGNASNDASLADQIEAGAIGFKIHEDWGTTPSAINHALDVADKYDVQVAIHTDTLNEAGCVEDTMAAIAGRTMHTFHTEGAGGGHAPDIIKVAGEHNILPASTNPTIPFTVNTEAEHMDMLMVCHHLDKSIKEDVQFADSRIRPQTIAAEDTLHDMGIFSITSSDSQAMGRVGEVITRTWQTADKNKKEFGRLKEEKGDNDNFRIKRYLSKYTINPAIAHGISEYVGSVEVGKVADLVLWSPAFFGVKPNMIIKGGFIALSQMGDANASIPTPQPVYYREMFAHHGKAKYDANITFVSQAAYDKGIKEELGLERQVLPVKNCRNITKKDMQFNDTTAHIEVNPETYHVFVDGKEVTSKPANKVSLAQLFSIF
Protocol: (§1) For the protection with inorganic compounds (BA and NaF), 0.25 mg/mL urease (HPU or JBU) was preincubated with 5 mM BA or 5 mM NaF for 20 min. Following preincubation, each sample of the protected urease was incubated with 0.5 mM Pal for 20 min. The samples containing a proper volume of respective buffer instead of Pal served as comparison with the abovementioned systems. The experiments were triply performed.

[2] = target: T2, jack bean urease (JBU) (Canavalia ensiformis, UniProt P07374); experiment: biochemical; format: biochemical; conditions: Fig 4D JBU; BA or NaF 5 mM preincubated 20 min, Pal 0.5 mM 20 min
T2 construct: Urease from jack bean (Canavalia ensiformis, JBU); purchased Sigma-Aldrich (St Louis, MO, USA) type III (catalogue number not given)
T2 sequence (P07374 whole entry, looked up): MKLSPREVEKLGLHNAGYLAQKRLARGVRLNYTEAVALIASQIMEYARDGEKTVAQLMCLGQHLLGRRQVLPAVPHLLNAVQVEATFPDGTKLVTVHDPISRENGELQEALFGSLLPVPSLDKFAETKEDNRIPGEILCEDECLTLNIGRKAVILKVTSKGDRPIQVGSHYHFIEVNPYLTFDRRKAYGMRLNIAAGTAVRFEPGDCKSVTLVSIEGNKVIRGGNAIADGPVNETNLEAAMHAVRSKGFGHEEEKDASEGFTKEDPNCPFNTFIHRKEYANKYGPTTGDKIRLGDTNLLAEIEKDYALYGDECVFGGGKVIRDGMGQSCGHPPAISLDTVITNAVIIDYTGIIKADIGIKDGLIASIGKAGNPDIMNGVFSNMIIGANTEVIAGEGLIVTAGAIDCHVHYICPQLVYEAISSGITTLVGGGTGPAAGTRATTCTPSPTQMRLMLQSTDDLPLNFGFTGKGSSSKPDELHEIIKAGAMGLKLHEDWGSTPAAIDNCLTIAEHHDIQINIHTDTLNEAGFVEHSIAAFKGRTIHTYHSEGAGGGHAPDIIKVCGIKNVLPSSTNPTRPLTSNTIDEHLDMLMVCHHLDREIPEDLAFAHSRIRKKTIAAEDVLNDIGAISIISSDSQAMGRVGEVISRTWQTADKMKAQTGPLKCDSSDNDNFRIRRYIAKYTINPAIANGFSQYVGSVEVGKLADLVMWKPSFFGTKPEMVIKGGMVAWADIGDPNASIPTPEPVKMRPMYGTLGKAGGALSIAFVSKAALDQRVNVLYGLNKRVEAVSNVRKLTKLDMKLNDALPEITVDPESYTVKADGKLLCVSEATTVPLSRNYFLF
Protocol: as §1

[3] = test system: H. pylori SS1; experiment: MIC by agar dilution method; format: cell-based; conditions: Helicobacter pylori
Protocol: (§2) A total of four H. pylori strains were studied, including three reference strains ATCC 43504, NCTC 26695 and SS1 gifted from Professor Richard Ferrero, Monash University, Australia, and one clinical isolate ICDC 111001 obtained from Professor Zhang Jianzhong, Chinese Center of Disease Control and Prevention. […] The MICs of Pal against the four H. pylori strains were evaluated by using agar dilution method. […] H. pylori strains were harvested and resuspended in PBS (1.0–2.0 McFarland were defined based on the strain properties). […] After 72 h, the MIC values were determined as the lowest concentration at which there was no strain growth judged by visual examination. Metronidazole was used as the positive control. The experiments were evaluated under two different pH (7.4 and 5.3) conditions and repeated twice.

[4] = test system: H. pylori NCTC 26695; experiment: MIC by agar dilution method; format: cell-based; conditions: Helicobacter pylori
Protocol: as §2

[5] = test system: H. pylori ICDC 111001 (clinical isolate); experiment: MIC by agar dilution method; format: cell-based; conditions: Helicobacter pylori
Protocol: as §2

[6] = test system: H. pylori ATCC 43504; experiment: MIC by agar dilution method; format: cell-based; conditions: Helicobacter pylori
Protocol: as §2

[7] = design: method as in PMID 23159469; conditions: among berberine, coptisine, palmatine and epiberberine; in vitro and in vivo assays; cited from earlier work
[8] = test system: JBU; design: method as in PMID 26669678; conditions: cited from earlier work
[9] = test system: HPU; design: method as in PMID 26669678; conditions: cited from earlier work

## OB(O)O [BA, boric acid]
[1]
  Residual urease activity (percent of control): 98.6% and 98.6098% and 99.1614% and 98.0689%
[2]
  Residual urease activity (percent of control): 86.6% and 87.7694% and 84.1052% and 87.7801%

## Cc1ncc([N+](=O)[O-])n1CCO [Met, Metronidazole]
[3]; pH 5.3, 72 h
  MIC: 0.5 µg/mL (≈ 2.92 µM)
[3]; pH 7.4, 72 h
  MIC: 0.5 µg/mL (≈ 2.92 µM)
[4]; NCTC26695, pH 5.3, 72 h
  MIC: 2 µg/mL (≈ 11.7 µM)
[4]; NCTC26695, pH 7.4, 72 h
  MIC: 2 µg/mL (≈ 11.7 µM)
[5]; pH 5.3, 72 h
  MIC: 2 µg/mL (≈ 11.7 µM)
[5]; pH 7.4, 72 h
  MIC: 2 µg/mL (≈ 11.7 µM)
[6]; ATCC43504, pH 5.3, 72 h
  MIC: 0.5 µg/mL (≈ 2.92 µM)
[6]; ATCC43504, pH 7.4, 72 h
  MIC: 0.5 µg/mL (≈ 2.92 µM)

## [F-].[Na+] [NaF, sodium fluoride]
[1]
  Residual urease activity (percent of control): 54.6% and 54.7779% and 54.0024% and 55.0707%
[2]
  Residual urease activity (percent of control): 42.9% and 43.7771% and 43.724% and 41.2392%

## COc1ccc2cc3[n+](cc2c1OC)CCc1cc2c(cc1-3)OCO2 [berberine]
[7]
  toxicity: relatively more toxic
[8]
  IC50: > 13 mM
[9]
  IC50: 10.2 ± 1.1 mM
